Source: US20100227767A1, “STOCHASTIC CONFINEMENT TO DETECT, MANIPULATE, AND UTILIZE MOLECULES AND ORGANISMS” (priority 2007, published 2010)

Key:
[1] = system: Methicillin Resistant S. aureus (MRSA, ATCC#43300); assay: plug-based microfluidic antibiotic susceptibility screen with alamarBlue viability indicator; conditions: FIG. 2c; breakpoint concentration; negative control VCM, positive control blank
[2] = system: MSSA; assay: plug-based drug screening in human blood plasma/LB, MSSA; conditions: MSSA in 1:1 human blood plasma/LB; breakpoint concentration; 7.5 h at 37° C
[3] = system: Methicillin Resistant S. aureus (MRSA); conditions: 24 mg/L; cited from earlier work
[4] = system: Methicillin Sensitive S. aureus (MSSA); conditions: 24 mg/L; cited from earlier work
[5] = system: Staphylococcus aureus ATCC#25923 (MSSA); assay: antibiotic testing on Mueller Hinton agar plates, MSSA; conditions: 30° C; even after 40 h
Description: Plates were made from Mueller Hinton Agar (Fluka, Switzerland). After autoclaving, the agar was cooled and antibiotics were added and 20 mL plates were poured. For CFX and OXA testing, 50 μL of MRSA and MSSA bacterial culture at 4×10^3 CFU/mL was spread onto separate TSA plates. The plates were incubated at 30° C. After 16.5 h and 40 h the plates were examined for colonies. […] For AMP, ERT, LVF, and VCM, 5 μL of culture at 2×10^4 CFU/mL were spread onto plates, and the plates were incubated at 37° C. for 12 h. After 12 h, growth of colonies on the plates was considered resistance to the antibiotic and no colonies on the plates were considered sensitivity to the antibiotic. For all tests, control plates with no antibiotic were inoculated to ensure that each plate tested received many CFU during inoculation.

[6] = system: Methicillin Resistant S. aureus (MRSA, ATCC#43300); assay: macro-scale experiments, MRSA

Structure (SMILES): CC1(C)S[C@@H]2[C@H](NC(=O)[C@H](N)c3ccccc3)C(=O)N2[C@H]1C(=O)O [AMP, ampicillin]
- plug fluorescence compared to positive and negative controls (unpaired t-test) [1]: statistically different than the negative control
- increase in fluorescence intensity of plugs with antibiotic [2]: no increase in fluorescence intensity

Structure (SMILES): CO[C@@]1(NC(=O)Cc2cccs2)C(=O)N2C(C(=O)O)=C(COC(N)=O)CS[C@@H]21 [CFX, cefoxitin]
- known inhibition of the strain by CFX [3]: inhibited
- known inhibition of the strain by CFX [4]: inhibited
- plug fluorescence compared to positive and negative controls (unpaired t-test) [1]: statistically different than the negative control
- appearance of MSSA colonies on antibiotic plates [5]: did not appear

Structure (SMILES): CC[C@H]1OC(=O)[C@H](C)[C@@H](O[C@H]2C[C@@](C)(OC)[C@@H](O)[C@H](C)O2)[C@H](C)[C@@H](O[C@@H]2O[C@H](C)C[C@H](N(C)C)[C@H]2O)[C@](C)(O)C[C@@H](C)C(=O)[C@H](C)[C@@H](O)[C@]1(C)O [ERT, erythromycin]
- plug fluorescence compared to positive and negative controls (unpaired t-test) [1]: statistically different than the negative control

Structure (SMILES): Cc1onc(-c2ccccc2)c1C(=O)N[C@@H]1C(=O)N2[C@@H]1SC(C)(C)[C@@H]2C(=O)O [OXA, oxacillin]
- plug fluorescence compared to positive and negative controls (unpaired t-test) [1]: statistically different than the negative control
- appearance of MSSA colonies on antibiotic plates [5]: did not appear

Structure (SMILES): CN[C@H](CC(C)C)C(=O)N[C@H]1C(=O)N[C@@H](CC(N)=O)C(=O)N[C@H]2C(=O)N[C@H]3C(=O)N[C@H](C(=O)N[C@H](C(=O)O)c4cc(O)cc(O)c4-c4cc3ccc4O)[C@H](O)c3ccc(c(Cl)c3)Oc3cc2cc(c3O[C@@H]2O[C@H](CO)[C@@H](O)[C@H](O)[C@H]2O[C@H]2C[C@](C)(N)[C@H](O)[C@H](C)O2)Oc2ccc(cc2Cl)[C@H]1O [VCM, vancomycin]
- plug fluorescence compared to positive and negative controls (unpaired t-test) [1]: statistically different than positive controls
- inhibition of the S. aureus strain in macro-scale experiments [6]: inhibited
